Measurements reported in paper PMC6050284, “Molecular characterization and functional differentiation of three pheromone-binding proteins from Tryporyza intacta” (Scientific Reports, 2018).

How the values were obtained:
Design in all cases: species or system Tryporyza intacta
[1] = target: TintPBP1 (Scirpophaga excerptalis, UniProt A0A345D2V5); test: Fluorescence competitive binding assay with 1-NPN probe, TintPBP1; conditions: for Binding to TintPBP1 in competitive binding (in words): competitor 0.5–10.0 μM; for Ki: calculated from IC50, 1-NPN probe; for IC50: displacement of 1-NPN (2 μM), 25 °C
Procedure: (§1) To measure the affinities of the sex pheromones to TintPBP1-3 proteins, we used N-Phenyl-1-naphthylamine (1-NPN) as the fluorescent probe on a Hitachi F-4500 at 25 °C based on the method of Mao et al.[17]. 1-NPN was used as the fluorescent reporter (2 μM) and 0.5–10.0 μM for each competitor was used to test fluorescence competitive binding affinities of sex pheromones. Six compounds were selected and measured in competitive binding assays. The dissociation constant for 1-NPN and binding results were analyzed by Prism software. Each of IC50 values (concentrations of ligands halving the initial fluorescence value of 1-NPN) from competitors were calculated using following equation: Ki=[IC50]/1+[1−NPN]/K1−NPN, where [1-NPN] is the free concentration of 1-NPN and K1−NPN is the dissociation constant of the complex protein/1-NPN.

[2] = target: TintPBP2 (Scirpophaga excerptalis, UniProt A0A345D2V6); test: Fluorescence competitive binding assay with 1-NPN probe, TintPBP2; conditions: for Binding to TintPBP2 in competitive binding (in words): competitor 0.5–10.0 μM; for Ki: calculated from IC50, 1-NPN probe; for IC50: displacement of 1-NPN (2 μM), 25 °C
Procedure: as §1

[3] = target: TintPBP3 (Scirpophaga excerptalis, UniProt A0A345D2V7); test: Fluorescence competitive binding assay with 1-NPN probe, TintPBP3; conditions: for Binding to TintPBP3 in competitive binding (in words): competitor 0.5–10.0 μM; for Ki: calculated from IC50, 1-NPN probe; for IC50: displacement of 1-NPN (2 μM), 25 °C
Procedure: as §1

Sequence of TintPBP3 (A0A345D2V7 entry or part of it): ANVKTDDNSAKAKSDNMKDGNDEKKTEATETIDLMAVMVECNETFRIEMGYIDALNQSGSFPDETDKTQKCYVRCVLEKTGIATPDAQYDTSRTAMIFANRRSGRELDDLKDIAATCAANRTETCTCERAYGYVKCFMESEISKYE
Sequence of TintPBP2 (A0A345D2V6 entry or part of it): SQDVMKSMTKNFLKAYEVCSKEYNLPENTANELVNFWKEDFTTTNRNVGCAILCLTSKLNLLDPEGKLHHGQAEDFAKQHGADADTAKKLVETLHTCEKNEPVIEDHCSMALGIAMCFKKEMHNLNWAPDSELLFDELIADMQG
Sequence of TintPBP1 (A0A345D2V5 entry or part of it): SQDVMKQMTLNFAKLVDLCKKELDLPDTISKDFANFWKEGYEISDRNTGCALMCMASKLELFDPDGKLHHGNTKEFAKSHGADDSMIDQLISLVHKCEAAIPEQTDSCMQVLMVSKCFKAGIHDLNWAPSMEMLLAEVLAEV

Structure (SMILES) | Binding to TintPBP1 in competitive binding (in words) [1] | Binding to TintPBP2 in competitive binding (in words) [2] | Binding to TintPBP3 in competitive binding (in words) [3] | Ki [1] | IC50 [1] | Ki [2] | IC50 [2] | Ki [3] | IC50 [3]
CCCC/C=C\CCCCCCCCCCCCOC(C)=O [Z13–18:AC] | cannot bind | cannot bind | cannot bind | – | – | – | – | – | –
CCCC/C=C\CCCCCCCCCCCCO [Z13–18:OH] | cannot bind | cannot bind | cannot bind | – | – | – | – | – | –
CCCC/C=C/CCCCCCCCCC=O [E11–16: Ald] | – | – | – | 2.15 ± 0.16 µM | 3.09 ± 0.22 µM | 3.58 ± 0.13 µM | 4.78 ± 0.17 µM | 3.45 ± 0.21 µM | 4.08 ± 0.24 µM
CCCC/C=C\CCCCCCCCCCOC(C)=O [Z11–16:AC] | cannot bind | cannot bind | cannot bind | – | – | – | – | – | –
CCCC/C=C\CCCCCCCCCCO [Z11–16:OH] | cannot bind | cannot bind | cannot bind | – | – | – | – | – | –
CCCC/C=C\CCCCCCCCCC=O [Z11–16: Ald] | – | – | – | 2.95 ± 0.04 µM | 4.27 ± 0.05 µM | 2.83 ± 0.11 µM | 3.81 ± 0.15 µM | 3.96 ± 0.28 µM | 4.66 ± 0.33 µM
